Source: the supplement of paper PMC5908809

Assays:
[1] = test system: normal NK cells expanded with K562-aAPC; experiment: drug sensitivity score (DSS) (DSS units); higher = more sensitive; extreme values may be limits of the assay; conditions: 72 h; IL-2 2.5 ng/mL
Protocol: (§1)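 Drug sensitivity and resistance testing on K562-aAPC-expanded normal NK cells: 5 concentrations (10-fold steps over a 10,000-fold range), 72 h at 37 °C, viability by CellTiter-Glo normalised to DMSO and benzethonium chloride controls; DSS from the fitted curve.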

[2] = test system: NK-92 (IL-2 2.5 ng/mL); experiment: as above; conditions: 72 h
[3] = test system: NK-YS (IL-2 2.5 ng/mL); experiment: as above; conditions: 72 h
[4] = test system: IMC-1 (IL-2 20 ng/mL); experiment: as above; conditions: 72 h
[5] = test system: DERL-7 (IL-2 2.5 ng/mL); experiment: as above; conditions: 72 h
[6] = test system: YT (IL-2 2.5 ng/mL); experiment: as above; conditions: 72 h
[7] = test system: SNK-6 (IL-2 2.5 ng/mL); experiment: as above; conditions: 72 h
[8] = test system: normal primary NK cells, pool 1 (3 donors), resting (IL-2 0 ng/mL); experiment: as above; conditions: 72 h
[9] = test system: normal primary NK cells, pool 3 (3 donors) (IL-2 2.5 ng/mL); experiment: as above; conditions: 72 h
[10] = test system: normal primary NK cells, pool 2 (3 donors) (IL-2 2.5 ng/mL); experiment: as above; conditions: 72 h
[11] = test system: KHYG-1 (IL-2 2.5 ng/mL); experiment: as above; conditions: 72 h
[12] = test system: KAI3 (IL-2 2.5 ng/mL); experiment: as above; conditions: 72 h
[13] = test system: normal primary NK cells, pool 1 (3 donors) (IL-2 2.5 ng/mL); experiment: as above; conditions: 72 h
[14] = test system: NKL (IL-2 2.5 ng/mL); experiment: as above; conditions: 72 h
[15] = test system: normal NK cells expanded with K562-aAPC; experiment: percent inhibition of viability; higher = more inhibition; conditions: 72 h, IL-2 2.5 ng/mL
Protocol: as §1

[16] = test system: NK-92 (IL-2 2.5 ng/mL); experiment: as above; conditions: 72 h
[17] = test system: NK-YS (IL-2 2.5 ng/mL); experiment: as above; conditions: 72 h
[18] = test system: IMC-1 (IL-2 20 ng/mL); experiment: as above; conditions: 72 h
[19] = test system: DERL-7 (IL-2 2.5 ng/mL); experiment: as above; conditions: 72 h
[20] = test system: YT (IL-2 2.5 ng/mL); experiment: as above; conditions: 72 h
[21] = test system: SNK-6 (IL-2 2.5 ng/mL); experiment: as above; conditions: 72 h
[22] = test system: normal primary NK cells, pool 1 (3 donors), resting (IL-2 0 ng/mL); experiment: as above; conditions: 72 h
[23] = test system: normal primary NK cells, pool 3 (3 donors) (IL-2 2.5 ng/mL); experiment: as above; conditions: 72 h
[24] = test system: normal primary NK cells, pool 2 (3 donors) (IL-2 2.5 ng/mL); experiment: as above; conditions: 72 h
[25] = test system: KHYG-1 (IL-2 2.5 ng/mL); experiment: as above; conditions: 72 h
[26] = test system: KAI3 (IL-2 2.5 ng/mL); experiment: as above; conditions: 72 h
[27] = test system: normal primary NK cells, pool 1 (3 donors) (IL-2 2.5 ng/mL); experiment: as above; conditions: 72 h
[28] = test system: NKL (IL-2 2.5 ng/mL); experiment: as above; conditions: 72 h

Clc1ccc(Nc2nnc(Cc3ccncc3)c3ccccc23)cc1 [Vatalanib] (max concentration tested 10000 nM)
Conditions | drug sensitivity score
[1] | 0
[2] | 2.23
[3] | 0.39
[4] | 2.18
[5] | 0
[6] | 0.07
[7] | 0
[8] | 0.01
[9] | 0
[10] | 0
[11] | 0.55
[12] | 0.45
[13] | 0
[14] | 2.05

percent inhibition of viability [%]
Conditions | 1 nM | 10 nM | 100 nM | 1000 nM | 10000 nM
[15] | -5.26 | 1.3 | -1.96 | 9.03 | 9.76
[16] | 5.05 | 7.47 | 10.4 | 6.67 | 30.2
[17] | 0.51 | -0.15 | 5.11 | 1.16 | 15.7
[18] | -2.63 | 0.44 | 3.66 | 5.09 | 30.7
[19] | 1.72 | 5.91 | 0.68 | 4.05 | 0.46
[20] | -1.15 | 0.78 | 6.42 | -0.36 | 12.6
[21] | 9.43 | 19.1 | 24.5 | 8.51 | 0.02
[22] | 8.82 | -6.33 | -5.39 | -29.3 | 12.2
[23] | -15.5 | -8.9 | -5.65 | -2.32 | -4.9
[24] | -10.1 | -2.12 | -4.7 | -5.37 | 2.5
[25] | 0.78 | 0.74 | 8.34 | 3.67 | 19.5
[26] | 0.27 | -2.4 | -1.03 | -4.6 | 20.6
[27] | -1.16 | -14.2 | -9.3 | -17.4 | -10.3
[28] | -15.8 | -12.6 | -1.27 | 4.13 | 31.1
